Experiments:
[1] = system: mouse model of acute hemolytic uremic syndrome (type 2 Shiga toxin); parameters: species or system mice; conditions: in vivo, 200 mg/kg
[2] = system: mouse model of acute hemolytic uremic syndrome (type 2 Shiga toxin); parameters: species or system mice; conditions: in vivo, 200 mg/kg; remark: listed apart in the source
[3] = system: mouse model of acute hemolytic uremic syndrome (type 2 Shiga toxin); parameters: species or system mice; conditions: in vivo, 200 mg/kg; remark: listed apart in the source
[4] = system: Hela cells; conditions: 72 h
[5] = system: yeast-type fungi; conditions: cited from earlier work

## O=C(O)[C@H]1O[C@@H](Oc2cc3oc(-c4ccccc4)cc(=O)c3c(O)c2O)[C@H](O)[C@@H](O)[C@@H]1O [baicalin]
[1]
  survival rates of mice: significantly increased
[2]
  pathological changes of kidney: only a minor hemorrhage existed in the kidney tissue, and there was no significant difference compared with mice in normal group
[3]
  content of blood urea nitrogen (BUN) in mouse serum, drug administration group vs normal control group: no significant difference
  content of creatinine in mouse serum, drug administration group vs normal control group: no significant difference
[4]
  inhibition of cytotoxicity of Hela cells caused by type 2 Shiga toxin: significantly inhibited the cytotoxicity of Hela cells caused by type 2 Shiga toxin, in a dose-dependent manner
[5]
  minimal inhibitory concentration (MIC): 70 to 100 µg/mL

Reference: patent US9629864B2 (priority 2013, dated 2017)
